Assay results from publication PMC4292808 (Journal of Medicinal Chemistry, 2014).

Columns and labels:
[1] = system: signaling in Gen2.2 cells; assay: CL097; format: cell-based; conditions: human Gen2.2 cells, 1 μM, 1 h pretreatment
[2] = system: phosphorylation of p38 MAPK in TAK1-deficient MEFs; assay: IL-1 and TGFβ-induced signaling in TAK1-deficient MEFs, Western blot; format: cell-based, mouse; conditions: 500 nM
[3] = system: phosphorylation of IKKα/β and degradation of IκB-α in L929 cells; assay: TNFα-induced NF-κB signaling, Western blot; format: cell-based, mouse
[4] = system: phosphorylation of p38 MAPK and SMAD2 in WT MEFs; format: cell-based, mouse; conditions: WT and TAK1-deficient MEFs
[5] = system: BCR-ABL-dependent Ba/F3 cells; assay: Ba/F3 cell proliferation assay; format: cell-based; conditions: Mus musculus, BaF3, read-out: cell growth inhibition
[6] = In vivo pharmacokinetic studies; conditions: male, Swiss albino, mouse, plasma, iv, 1 mg/kg
[7] = target: T1, TAK1 (Homo sapiens, UniProt O43318); assay: biochemical
T1 sequence (O43318 1-303 limits assumed): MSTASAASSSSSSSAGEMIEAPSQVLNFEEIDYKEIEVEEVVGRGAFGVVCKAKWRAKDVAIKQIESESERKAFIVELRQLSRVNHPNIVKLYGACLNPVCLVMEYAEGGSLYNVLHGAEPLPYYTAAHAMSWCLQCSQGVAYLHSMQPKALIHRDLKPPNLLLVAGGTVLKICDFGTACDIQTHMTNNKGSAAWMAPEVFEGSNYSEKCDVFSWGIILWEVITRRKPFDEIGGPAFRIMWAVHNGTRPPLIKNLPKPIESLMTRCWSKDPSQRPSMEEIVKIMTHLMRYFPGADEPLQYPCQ

[8] = system: phosphorylation of p105, p38 and JNK1/2 in MEFs; assay: IL-1α-induced signaling, Western blot; format: cell-based, mouse; conditions: MEFs stimulated with IL-1α
[9] = system: phosphorylation of p105, p38 and JNK1/2 in 293 IL-1R cells; assay: IL-1α-induced signaling, Western blot; format: cell-based; conditions: human 293 IL-1R cells stimulated with IL-1α
[10] = target: p38α (Homo sapiens, UniProt Q16539); assay: SelectScreen enzymatic assay; format: biochemical; conditions: KiNativ and enzymatic assays, in words
p38α, sequence (Q16539 whole entry): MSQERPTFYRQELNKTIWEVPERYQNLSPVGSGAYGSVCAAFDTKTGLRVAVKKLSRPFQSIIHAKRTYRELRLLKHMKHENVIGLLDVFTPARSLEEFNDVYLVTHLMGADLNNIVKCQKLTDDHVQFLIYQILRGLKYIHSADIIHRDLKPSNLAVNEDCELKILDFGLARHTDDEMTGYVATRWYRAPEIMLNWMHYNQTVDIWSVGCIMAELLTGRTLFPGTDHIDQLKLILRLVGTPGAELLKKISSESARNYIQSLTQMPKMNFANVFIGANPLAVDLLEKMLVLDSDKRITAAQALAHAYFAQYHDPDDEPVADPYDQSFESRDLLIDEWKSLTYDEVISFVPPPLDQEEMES

[11] = target: T2, MAP4K2 (Homo sapiens, UniProt Q12851); assay: KiNativ HUH7 lysate; format: binding; conditions: in words
T2 sequence (Q12851 1-820): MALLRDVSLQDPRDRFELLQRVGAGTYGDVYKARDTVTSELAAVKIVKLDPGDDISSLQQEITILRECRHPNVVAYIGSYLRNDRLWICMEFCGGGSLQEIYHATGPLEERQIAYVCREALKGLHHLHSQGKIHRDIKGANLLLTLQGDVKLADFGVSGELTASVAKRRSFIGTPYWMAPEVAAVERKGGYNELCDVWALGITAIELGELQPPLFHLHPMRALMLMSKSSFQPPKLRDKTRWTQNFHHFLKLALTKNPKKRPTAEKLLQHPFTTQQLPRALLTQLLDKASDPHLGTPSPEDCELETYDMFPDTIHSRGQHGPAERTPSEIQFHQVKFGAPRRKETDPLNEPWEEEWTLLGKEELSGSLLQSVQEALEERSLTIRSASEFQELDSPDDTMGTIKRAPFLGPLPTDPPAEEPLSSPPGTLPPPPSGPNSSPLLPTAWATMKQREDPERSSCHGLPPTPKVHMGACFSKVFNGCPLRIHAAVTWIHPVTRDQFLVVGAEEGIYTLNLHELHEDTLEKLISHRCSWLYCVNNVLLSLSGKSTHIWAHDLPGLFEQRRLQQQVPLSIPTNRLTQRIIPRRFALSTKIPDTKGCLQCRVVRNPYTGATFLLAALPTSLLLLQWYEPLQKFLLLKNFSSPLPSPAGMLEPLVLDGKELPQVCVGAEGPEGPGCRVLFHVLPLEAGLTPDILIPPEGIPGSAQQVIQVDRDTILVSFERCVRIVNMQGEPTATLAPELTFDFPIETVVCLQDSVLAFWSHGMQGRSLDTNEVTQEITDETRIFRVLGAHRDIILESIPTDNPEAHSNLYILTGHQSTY

[12] = target: T3, TAK1 (Homo sapiens, UniProt O43318); assay: KiNativ HUH7 lysate; format: binding; conditions: in words
T3 sequence (O43318 1-606): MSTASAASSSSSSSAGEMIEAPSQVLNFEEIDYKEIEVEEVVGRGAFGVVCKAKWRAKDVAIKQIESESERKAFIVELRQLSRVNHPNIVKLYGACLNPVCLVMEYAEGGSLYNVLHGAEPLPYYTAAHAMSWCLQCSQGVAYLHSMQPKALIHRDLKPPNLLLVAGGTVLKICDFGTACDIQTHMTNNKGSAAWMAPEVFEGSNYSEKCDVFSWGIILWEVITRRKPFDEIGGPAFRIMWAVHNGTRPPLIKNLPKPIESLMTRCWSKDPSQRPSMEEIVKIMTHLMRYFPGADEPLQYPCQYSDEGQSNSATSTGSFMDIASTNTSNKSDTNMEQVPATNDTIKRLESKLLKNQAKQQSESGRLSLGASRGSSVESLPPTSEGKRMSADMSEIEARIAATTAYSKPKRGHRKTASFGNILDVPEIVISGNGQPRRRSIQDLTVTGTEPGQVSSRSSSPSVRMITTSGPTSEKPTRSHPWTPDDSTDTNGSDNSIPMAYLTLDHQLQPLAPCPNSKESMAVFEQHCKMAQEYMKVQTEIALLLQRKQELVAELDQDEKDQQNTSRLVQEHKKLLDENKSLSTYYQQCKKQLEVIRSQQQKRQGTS

[13] = 100 nM, 30 min pretreatment, TNFα 5 min, Western blot

Structure (SMILES): CNc1cc(Oc2cc(C(=O)Nc3cc(-n4cnc(C)c4)cc(C(F)(F)F)c3)ccc2C)ncn1 [Compound 16]
- CL097-induced signaling [1]: not able to block
- IL-1-induced phosphorylation of p38 [2]: complete inhibition
- effect on TNFα-induced phosphorylation of IKKα/β and degradation of IκB-α [3, 13]: no effect
- IL-1 and TGFβ-induced p38 MAPK phosphorylation [4]: dose-dependent inhibition
- TGFβ-induced phosphorylation of SMAD2 [4]: did not inhibit

Structure (SMILES): C[S+]([O-])c1ccc(-c2nc(-c3ccc(F)cc3)c(-c3ccncc3)[nH]2)cc1 (centres unmarked) [Compound 38, SB203580, reference compound]
- effect on TNFα-induced phosphorylation of IKKα/β and degradation of IκB-α [3, 13]: no effect

Structure (SMILES): CNC(=O)c1ccc(C)c(-n2c(C)cc(OCc3ccc(F)cc3F)c(Br)c2=O)c1 [Compound 39, PH-797804, reference compound]
- effect on TNFα-induced phosphorylation of IKKα/β and degradation of IκB-α [3, 13]: no effect

Structure (SMILES): CCN1CCN(Cc2ccc(NC(=O)c3ccc(OC)c(Oc4ncnc5[nH]ccc45)c3)cc2C(F)(F)F)CC1 [S1]
- CL097-induced signaling [1]: only partially inhibited signaling

Structure (SMILES): CCN1CCN(Cc2ccc(NC(=O)c3cccc(Oc4ccnc5[nH]ccc45)c3)cc2C(F)(F)F)CC1 [Compound 10]
- inhibition at 0.01 µM [5]: > 50%

Structure (SMILES): CCN1CCN(Cc2ccc(NC(=O)c3ccc(C)c(Oc4ncnc5[nH]c(C)cc45)c3)cc2C(F)(F)F)CC1 [Compound 5]
- clearance at 24 h [6]: 26.5 mL/min/kg

Structure (SMILES): CCN1CCN(Cc2ccc(NC(=O)c3ccc(C)c(Oc4ccnc5[nH]ccc45)c3)cc2C(F)(F)F)CC1 [Compound 1, 3-((1H-Pyrrolo[2,3-b]pyridin-4-yl)oxy)-N-(4-((4-ethylpiperazin-1-yl)methyl)-3-(trifluoromethyl)phenyl)-4-methylbenzamide]
- IC50 [7]: 15 nM
- CL097-induced signaling [1]: blocked signaling
- half-life [6]: 2 h
- phosphorylation levels of p105, p38 and JNK1/2 [8]: inhibited in a dose-dependent manner
- phosphorylation levels of p105, p38 and JNK1/2 [9]: inhibited in a dose-dependent manner
- effect on TNFα-induced phosphorylation of IKKα/β and degradation of IκB-α [3, 13]: comparable cellular potency

Structure (SMILES): CCN1CCN(Cc2ccc(NC(=O)c3cccc(CCc4cnc5[nH]ccc5c4OC)c3)cc2C(F)(F)F)CC1 [Compound 23]
- activity against p38α [10]: inactive

Structure (SMILES): CNc1cc(Oc2cc(C(=O)Nc3cc(N4CCN(C)CC4)cc(C(F)(F)F)c3)ccc2C)ncn1 [Compound 17]
- IL-1-induced phosphorylation of p38 [2]: complete inhibition
- effect on TNFα-induced phosphorylation of IKKα/β and degradation of IκB-α [3, 13]: no effect
- effect on TNFα-induced phosphorylation of IKKα/β and degradation of IκB-α ([3]; concentrations up to 1 μM): not very effective
- IL-1 and TGFβ-induced p38 MAPK phosphorylation [4]: dose-dependent inhibition
- TGFβ-induced phosphorylation of SMAD2 [4]: did not inhibit

Structure (SMILES): CCN1CCN(Cc2ccc(NC(=O)c3ccc(C)c(/C=C/c4cnc5[nH]ccc5c4OC)c3)cc2C(F)(F)F)CC1 [Compound 2, (E)-N-(4-((4-Ethylpiperazin-1-yl)methyl)-3-(trifluoromethyl)phenyl)-3-(2-(4-methoxy-1H-pyrrolo[2,3-b]pyridin-5-yl)vinyl)-4-methylbenzamide]
- inhibition at 0.01 µM [5]: > 50%
- effect on TNFα-induced phosphorylation of IKKα/β and degradation of IκB-α [3, 13]: comparable cellular potency

Structure (SMILES): CCN1CCN(Cc2ccc(NC(=O)c3ccc(C)c(Oc4ccnc(C(=O)NC)c4)c3)cc2C(F)(F)F)CC1 [Compound 9]
- activity against MAP4K2 [11]: inactive
- activity against TAK1 [12]: inactive

Structure (SMILES): CCN1CCN(Cc2ccc(NC(=O)c3ccc(C)c(Oc4ncnc5[nH]ccc45)c3)cc2C(F)(F)F)CC1 [Compound 3]
- clearance at 24 h [6]: 65.8 mL/min/kg

Structure (SMILES): CCN1CCN(Cc2ccc(NC(=O)c3cccc(/C=C/c4cnc5[nH]ccc5c4OC)c3)cc2C(F)(F)F)CC1 [Compound 24]
- activity against p38α [10]: inactive

Structure (SMILES): Cc1cn(-c2cc(NC(=O)c3ccc(C)c(Oc4ccnc5[nH]ccc45)c3)cc(C(F)(F)F)c2)cn1 [Compound 12]
- effect on TNFα-induced phosphorylation of IKKα/β and degradation of IκB-α [3, 13]: no effect

Structure (SMILES): COc1cc(O)c2c(c1)/C=C/C[C@H](O)[C@H](O)C(=O)/C=C\C[C@H](C)OC2=O [Compound 37, 5Z-7-oxozeaenol, reference compound]
- TGFβ-induced phosphorylation of SMAD2 [4]: inhibited phosphorylation of both p38 and SMAD2

Structure (SMILES): CCN1CCN(Cc2ccc(NC(=O)c3ccc(C)c(Oc4ncnc5[nH]ncc45)c3)cc2C(F)(F)F)CC1 [Compound 4]
- clearance at 24 h [6]: 99.2 mL/min/kg

Structure (SMILES): CCN1CCN(Cc2ccc(C(=O)Nc3ccc(C)c(Oc4ccnc5[nH]ccc45)c3)cc2C(F)(F)F)CC1 [Compound 11]
- effect on TNFα-induced phosphorylation of IKKα/β and degradation of IκB-α [3, 13]: no effect
